Measured values: PMC8333425, “Discovery of a dual Ras and ARF6 inhibitor from a GPCR endocytosis screen” (Nature Communications, 2021)
pIC50: −log10 of the molar value. “And” between values parts separate entries of the source, which are not always exact repeats. Equal entries are not always repeated.

How the values were obtained:
ERK1/2 activation by B2R = assay: Western blot of B2R-mediated ERK1/2 phosphorylation; type: cell-based, human; conditions: for p-ERK1/2 over ERK1/2, normalized to basal (0 min), B2R: Comp 21 50 μM, individual experiments
Description: HEK293SL cells (10^5 cells per well) were seeded in a poly-L-lysine-coated six-well plate and transiently transfected with 3 μg Flag-AT1R, HA-B2R or HA-β2AR and/or 500 ng Flag-MEK1-WT, Flag-MEK1-DD, Flag-BRAF-WT, Flag-BRAF-V600E, Flag-K-Ras-WT, Flag-K-Ras-G12V, HA-ARF6-WT, or HA-ARF6-T27N. Gαq/11 KO and βarr1/2 KO cells were seeded onto 100 mm dishes at a density of 10^6 cells per dish. Next day, cells were transfected with 3 μg AT1R alone or along with 500 ng of β-arrestin2 using PEI. After 18 h of transfection, cells were detached and re-seeded onto poly-L-lysine coated 12-well plates (~1.5–2 × 10^5cells/well) for subsequent experiments. Forty-eight hours post transfection, in a 37 °C water bath, cells were serum-starved for 30 min, pretreated with DMSO (0.1%) or compound 21/Rasarfin (50 µM or at indicated concentrations) for 30 min, then stimulated or not with the indicated ligand [AngII (1 µM), BK (1 µM), Iso (10 µM) or EGF (100 ng/ml)] at indicated times. Cells were put on ice, washed with PBS and solubilized in 2x laemmli buffer (250 mM Tris–HCl pH 6.8, 2% SDS (w/v), 10% glycerol (v/v), 0.01% bromophenol blue (w/v) and 5% β-mercaptoethanol (v/v)) by heating at 65 °C for 15 min. Lysates were resolved on 10 or 14% SDS-PAGE, transferred to nitrocellulose membranes and immunoblotted for p-ERK1/2, ERK1/2, p-Akt, Akt, HA, Myc, β-actin or FLAG. ImageLab 5.2 software was used to quantify the digital blots as fold of the phosphorylated protein over total protein, which were then normalized as indicated in the figure legends. Uncropped immunoblots are provided in the Source Data file.

PI3K/Akt = PI3K/Akt BRET sensor (Akt (PH)-RlucII / rGFP-CAAX), EGFR-mediated; type: cell-based, human
Description: HEK293SL cells were seeded at a density of 7.5 × 10^5 cells per 100-mm dish and 24 h later, transiently transfected as such. For receptor internalization experiments, cells were transfected with 0.12 μg AT1R-RlucII, B2R-RlucII, or β2AR-RlucII and 0.48 μg of either rGFP-CAAX (to assess removal from the PM) or rGFP-FYVE (to assess accumulation in the endosomes). For β-arrestin recruitment assays, cells were transfected with 0.48 μg of receptor-YFP along with 0.12 μg of β-arrestin-RlucII. For β-arrestin/AP-2 binding experiments, cells were transfected with 1 μg Flag-AT1R, 1 μg β2-Adaptin-YFP, and 0.12 μg β-arrestin2-RlucII. For G protein activation, cells were transfected with 3 μg of sp-Flag-AT1R along with either 4.5 μg of the Gαq-polycistronic BRET sensor or 0.24 μg of the Gαi3-RlucII and 0.6 μg of GFP10-Gγ2 and Gβ1 sensors or 0.12 μg PKN-RBD-RlucII and 0.48 μg of rGFP-CAAX. For PKC activation, cells were transfected with 3 μg of sp-Flag-AT1R and 0.18 μg of the PKC sensor. For GTPase activation experiments, cells were transfected with 1 μg Flag-AT1R, 0.48 μg of rGFP-CAAX, and either 0.12 μg of GGA3-PBD-RlucII, PAK-CRIB-RlucII or Raf-RBD-RlucII. For biosensor validation experiments, cells were additionally transfected with 500 ng Flag-K-Ras-WT, Flag-K-Ras-G12V, Flag-K-Ras-SOS-CAAX, HA-ARF6-WT, HA-ARF6-T27N, Myc-Rac1-WT, Myc-Rac1-Q61L or Myc-Rac1-T17N. For PI3K/Akt activation experiments, cells were transfected with 0.48 μg of rGFP-CAAX and 0.12 μg of Akt (PH)-RlucII. After 18 h of transfection, the media was replaced and cells were divided for subsequent experiments. Cells were detached and seeded onto poly-L-ornithine-coated 96-well flat white bottom plates (BrandTech Scientific) at a density of 2.5 × 10^4 cells per well in media. The next day, cells were washed once with Tyrode’s buffer (140 mM NaCl, 2.7 mM KCl, 1 mM CaCl2, 12 mM NaHCO3, 5.6 mM D-glucose, 0.5 mM MgCl2, 0.37 mM NaH2PO4, 25 mM HEPES, pH 7.4) and left in Tyrode’s buffer. For kinetics of β-arrestin recruitment or β-arrestin binding to receptor and AP-2 experiments, cells were serum starved for 30 min, pretreated with 21 (50 µM) or Barbadin (100 µM) for 30 min, stimulated with 100 nM AngII or 1 µM BK and BRET signals were monitored at indicated times using a Victor X Light plate reader (PerkinElmer). Coelenterazine H (final concentration of 5 µM) was added 3–5 min prior to BRET measurements. Filter set was 460/80 nm and 535/30 nm for detecting the RlucII Renilla luciferase (donor) and YFP (acceptor) light emissions, respectively. The BRET ratio was determined by calculating the ratio of the light emitted by YFP over the light emitted by the RlucII. For G protein activation, cells were serum starved, pretreated with compounds for 30 min, stimulated with 100 nM AngII for 2 min (Gαq, Gαi3, and Rho sensors) or 5 min (PKC sensor). For the kinetics of GTPase and PI3K/Akt activation, cells were serum starved, pretreated with 21 (50 µM) or Wortmannin (200 nM) for 30 min, stimulated with ligand (100 nM AngII or 100 ng/ml EGF) and BRET signals were monitored at indicated times. For concentration-response curves, cells were serum-starved, pretreated with various concentrations of compounds for 30 min and stimulated with ligand (100 nM AngII, 1 µM BK, 10 µM Isoproterenol (Iso) or 100 ng/ml EGF) in Tyrode’s buffer for 30 min for receptor internalization, 10 min for ARF6, 2 min for Rac and Rho activation and 5 min for Ras activation and PI3K/Akt activation. BRET signals were monitored using a Synergy2 (BioTek) microplate reader and coelenterazine 400a (final concentrations of 5 µM) added 3–5 min prior to BRET measurements. Filter set was 410/80 nm and 515/30 nm for detecting the RlucII Renilla luciferase (donor) and rGFP/GFP10 (acceptor) light emissions, respectively. The BRET ratio was determined by calculating the ratio of the light emitted by rGFP/GFP10 over the light emitted by the RlucII.

Structure (SMILES): CC(C)C(=O)N1CCN(c2ccc(NC(=O)c3cc4ccccc4o3)cc2Cl)CC1 [Compound 21]
- MAPK response promoted by B2R (ERK1/2 activation by B2R; 50 μM): blocked MAPK responses
- p-ERK1/2 over ERK1/2, normalized to basal (0 min), B2R (ERK1/2 activation by B2R; time 0 min): 1 (3×) and 1.039
- p-ERK1/2 over ERK1/2, normalized to basal (0 min), B2R (ERK1/2 activation by B2R; time 2 min): 1.954 and 3.081 and 1.486 and 1.1152
- p-ERK1/2 over ERK1/2, normalized to basal (0 min), B2R (ERK1/2 activation by B2R; time 5 min): 0.9797 and 0.9619 and 1.157 and 1.051
- pIC50 (PI3K/Akt; Homo sapiens, read-out: potency for inhibition of EGFR-mediated Akt (BRET assay)): 5.30 to 5.40
- EGF-promoted BRET (PI3K/Akt; Log [Comp 21] (M) -4.30103): 0.039 and 0.07107 and 0.056
- EGF-promoted BRET (PI3K/Akt; Log [Comp 21] (M) -5.32288): 0.1533 and 0.2873 and 0.2883
- EGF-promoted BRET (PI3K/Akt; Log [Comp 21] (M) -6): 0.6727 and 0.6567 and 0.6163
- EGF-promoted BRET (PI3K/Akt; Log [Comp 21] (M) -6.32288): 0.7007 and 0.6398 and 0.6137
- EGF-promoted BRET (PI3K/Akt; Log [Comp 21] (M) -7): 0.7123 and 0.6372 and 0.6493
